From PubChem BioAssay AID2060602 (Molecular Pharmacology Branch, DTP, NCI, 2025) come the findings set out here.

Where “and” joins values, the source holds several entries; their conditions need not be identical. Identical values can stand only once.

The experiment relates to 648629-189-R-J1-PDC complex spheroids viability. Nature of the experiment: Anticancer human tumor 648629-189-R-J1-PDC patient-derived bladder carcinoma cell line growth inhibition [CLK]. The conditions noted are these: for viability, T/C: stronger effect = lower value. The method, boiled down:
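Multi-cell-type spheroids combined patient-derived tumor cells with HUVEC endothelial cells and human mesenchymal stem cells. Paired agents were dosed in half-log steps down from about clinical Cmax, or from 10 microM where Cmax was unknown.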
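For viability, T/C in this document: drug exposure lasted seven days before viability readout; 100% = DMSO vehicle control wells.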

Turning to `COc1ccc([C@@H](O)c2cc(-c3ncnc4cc(N5CCOCC5)ccc34)c(F)cc2Cl)nn1`, the viability, T/C was 92.5% and 93.4% (compound 0.0316 µM); 94.4% and 108% (compound 0.1 µM); 94.7% and 89.7% (compound 0.316 µM); 75.6% and 85% (compound 1 µM); 74.8% and 70% (compound 3.16 µM); 40.1% and 39.5% (compound 10 µM). Also, the IC50 (curve of compound) was 7.05 µM and 6.68 µM.

As to `O=c1[nH]cc(F)c(=O)[nH]1`, the viability, T/C (compound 0.0316 µM) was 101% and 97.3%; the viability, T/C (compound 0.1 µM) was 92.7% and 84.2%; the viability, T/C (compound 0.316 µM) was 80.1% and 69.3%; the viability, T/C (compound 1 µM) was 57.8% and 36%; the viability, T/C (compound 3.16 µM) was 29.1% and 31.9%; the viability, T/C (compound 10 µM) was 19.3% and 26.1%. For the same compound, the IC50 (curve of compound) is 1.31 µM and 0.632 µM.

In the case of `COc1cccc2c1C(=O)c1c(O)c3c(c(O)c1C2=O)CC(O)(C(=O)CO)CC3OC1CC(N)C(O)C(C)O1` (stereo not drawn), the viability, T/C (compound 0.0316 µM) was 32.3% and 23%; the viability, T/C (compound 0.1 µM) was 16.2%; the viability, T/C (compound 0.316 µM) is 7.93% and 6.42%; the viability, T/C (compound 1 µM) is 0.61% and 0.54%; the viability, T/C (compound 3.16 µM) is 0.12% and 0.15%; the viability, T/C (compound 10 µM) was 0.13% and 0.14%. The IC50 (curve of compound) was < 0.0316 µM.

Consider `CC1COCCN1c1cc(C2(S(C)(=N)=O)CC2)nc(-c2ccnc3[nH]ccc23)n1` (stereo not drawn) + CN1CCN(c2cc(C(=O)Nc3cc4cc(-c5cnn(C)c5)ccc4cn3)ccn2)CC1, for which the IC50 (curve of first compound, second compound 0.0316 µM) came to 4.57 µM; the IC50 (curve of first compound, second compound 0.1 µM) turned out to be 3.95 µM; the IC50 (curve of first compound, second compound 0.316 µM) was < 0.0316 µM; the IC50 (curve of first compound, second compound 1 µM) was < 0.0316 µM; the IC50 (curve of first compound, second compound 3.16 µM) is < 0.0316 µM; the IC50 (curve of first compound, second compound 10 µM) is < 0.0316 µM. The viability, T/C was 115% (second compound 0.0316 µM, first compound 0.0316 µM); 116% (second compound 0.0316 µM, first compound 0.1 µM); 103% (second compound 0.0316 µM, first compound 0.316 µM); 97.1% (second compound 0.0316 µM, first compound 1 µM); 59.5% (second compound 0.0316 µM, first compound 3.16 µM); 27.5% (second compound 0.0316 µM, first compound 10 µM). Further, the viability, T/C is 109% (second compound 0.1 µM, first compound 0.0316 µM); 95.4% (second compound 0.1 µM, first compound 0.1 µM); 96.8% (second compound 0.1 µM, first compound 0.316 µM); 83% (second compound 0.1 µM, first compound 1 µM); 54.3% (second compound 0.1 µM, first compound 3.16 µM); 26.5% (second compound 0.1 µM, first compound 10 µM). Further, the viability, T/C is, setting by setting: (second compound 0.316 µM, first compound 0.0316 µM) 33.3%; (second compound 0.316 µM, first compound 0.1 µM) 45.9%; (second compound 0.316 µM, first compound 0.316 µM) 39.8%; (second compound 0.316 µM, first compound 1 µM) 34.8%; (second compound 0.316 µM, first compound 3.16 µM) 19.1%; (second compound 0.316 µM, first compound 10 µM) 9.89%. Further, the viability, T/C is 0.39% (second compound 1 µM, first compound 0.0316 µM); 0.82% (second compound 1 µM, first compound 0.1 µM); 0.84% (second compound 1 µM, first compound 0.316 µM); 0.41% (second compound 1 µM, first compound 1 µM); 0.31% (second compound 1 µM, first compound 3.16 µM); 0.11% (second compound 1 µM, first compound 10 µM). In addition, the viability, T/C is, setting by setting: (second compound 3.16 µM, first compound 0.0316 µM) 1.1%; (second compound 3.16 µM, first compound 0.1 µM) 0.7%; (second compound 3.16 µM, first compound 0.316 µM) 0.19%; (second compound 3.16 µM, first compound 1 µM) 0.15%; (second compound 3.16 µM, first compound 3.16 µM) 0.15%; (second compound 3.16 µM, first compound 10 µM) 1.68%. The viability, T/C (second compound 10 µM, first compound 0.0316 µM) is 0.16%; the viability, T/C (second compound 10 µM, first compound 0.1 µM) is 0.16%; the viability, T/C (second compound 10 µM, first compound 0.316 µM) is 0.22%; the viability, T/C (second compound 10 µM, first compound 1 µM) is 0.22%; the viability, T/C (second compound 10 µM, first compound 3.16 µM) is 0.22%; the viability, T/C (second compound 10 µM, first compound 10 µM) is 0.19%.

Broadly, the viability, T/C is the ratio of treated to control. As usually defined, the IC50 is the concentration needed to halve the response being measured.
